# Experimental data as given in PubChem BioAssay AID220 (DTP/NCI, 2004).
# Several values for one entry are separate records, joined by “and”; a condition that tells them apart may be missing. Identical values can stand only once. Records with an inconclusive call do not appear.
# Tested on: CD8F1 mice, subcutaneous mammary adenocarcinoma, T/C%
# Test: NCI In Vivo Anticancer Drug Screen. Data for tumor model Mammary Adenocarcinoma CD8F1 (subcutaneous) in CD8F1
# Details: higher = larger tumour
# Summary of the method: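 Compound-treated versus vehicle-treated mice with transplantable tumors; survival or tumor size compared as T/C.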
# [1] = endpoint: median tumor weight (est.), dose: 50.0 mg/kg/injection, schedule: Q07DX005 (ip), vehicle: saline
# [2] = endpoint: median tumor weight (est.), dose: 25.0 mg/kg/injection, schedule: Q07DX005 (ip), vehicle: Klucel (hydroxypropylcellulose) (HPC)
# [3] = endpoint: median tumor weight (est.), dose: 50.0 mg/kg/injection, schedule: Q07DX005 (ip), vehicle: Klucel (hydroxypropylcellulose) (HPC)
# [4] = endpoint: median tumor weight (est.), dose: 100.0 mg/kg/injection, schedule: Q07DX005 (ip), vehicle: Klucel (hydroxypropylcellulose) (HPC)
# [5] = endpoint: median tumor weight (est.), dose: 200.0 mg/kg/injection, schedule: Q07DX005 (ip), vehicle: Klucel (hydroxypropylcellulose) (HPC)
# [6] = endpoint: median tumor weight (est.), dose: 400.0 mg/kg/injection, schedule: Q07DX005 (ip), vehicle: Klucel (hydroxypropylcellulose) (HPC)
# [7] = endpoint: median tumor weight change, dose: 250.0 mg/kg/injection, schedule: Q01DX001 (ip), vehicle: Klucel (hydroxypropylcellulose) (HPC)
smiles,measurement,setting,value
COc1cc(C)c2c(c1C=O)Oc1c(c(C)c(O)c3c1C(O)OC3=O)OC2=O (centres undefined),T/C,"endpoint: mean tumor weight, dose: 3.12 mg/kg/injection, schedule: Q07DX005 (ip), vehicle: saline",42 % of control
same,T/C,"endpoint: mean tumor weight, dose: 6.25 mg/kg/injection, schedule: Q07DX005 (ip), vehicle: saline",49 % of control
same,T/C,"endpoint: mean tumor weight, dose: 25.0 mg/kg/injection, schedule: Q07DX005 (ip), vehicle: saline",168 % of control
same,T/C,"endpoint: mean tumor weight, dose: 50.0 mg/kg/injection, schedule: Q07DX005 (ip), vehicle: saline",61 % of control
same,T/C,"endpoint: median tumor weight (est.), dose: 3.12 mg/kg/injection, schedule: Q07DX005 (ip), vehicle: saline",97 % of control
same,T/C,"endpoint: median tumor weight (est.), dose: 3.12 mg/kg/injection, schedule: Q07DX005 (ip), vehicle: suspension in saline",89 % of control
same,T/C,"endpoint: median tumor weight (est.), dose: 6.25 mg/kg/injection, schedule: Q07DX005 (ip), vehicle: saline",114 % of control
same,T/C,"endpoint: median tumor weight (est.), dose: 6.25 mg/kg/injection, schedule: Q07DX005 (ip), vehicle: suspension in saline",104 % of control
same,T/C,"endpoint: median tumor weight (est.), dose: 12.5 mg/kg/injection, schedule: Q07DX005 (ip), vehicle: suspension in saline",94 % of control
same,T/C,"endpoint: median tumor weight (est.), dose: 25.0 mg/kg/injection, schedule: Q07DX005 (ip), vehicle: saline",75 % of control
same,T/C,"endpoint: median tumor weight (est.), dose: 25.0 mg/kg/injection, schedule: Q07DX005 (ip), vehicle: suspension in saline",96 % of control
same,T/C,[1],96 % of control
same,T/C,"endpoint: median tumor weight (est.), dose: 50.0 mg/kg/injection, schedule: Q07DX005 (ip), vehicle: suspension in saline",88 % of control
same,T/C,"endpoint: median tumor weight (est.), dose: 100.0 mg/kg/injection, schedule: Q07DX005 (ip), vehicle: suspension in saline",90 % of control
COC1C(CO)OC(n2cnc3c(=S)nc(N)[nH]c32)C1O (centres undefined),T/C,"endpoint: median tumor weight (est.), dose: 12.5 mg/kg/injection, schedule: Q07DX005 (ip), vehicle: Klucel (hydroxypropylcellulose) (HPC)",109 % of control
same,T/C,[2],116 % of control
same,T/C,[3],112 % of control
same,T/C,[4],79 % of control
same,T/C,[5],28 % of control
same,T/C,[6],22 % of control
Nc1cccc(=O)[nH]1,T/C,[1],21 % of control
same,T/C,"endpoint: median tumor weight (est.), dose: 100.0 mg/kg/injection, schedule: Q07DX005 (ip), vehicle: saline",68 % of control
same,T/C,"endpoint: median tumor weight (est.), dose: 200.0 mg/kg/injection, schedule: Q07DX005 (ip), vehicle: saline",70 % of control
same,T/C,"endpoint: median tumor weight (est.), dose: 400.0 mg/kg/injection, schedule: Q07DX005 (ip), vehicle: saline",96 % of control and 100 % of control
same,T/C,"endpoint: median tumor weight (est.), dose: 400.0 mg/kg/injection, schedule: Q07DX005 (ip), vehicle: suspension in saline",47 % of control
same,T/C,"endpoint: median tumor weight (est.), dose: 800.0 mg/kg/injection, schedule: Q07DX005 (ip), vehicle: saline",78 % of control
same,T/C,"endpoint: median tumor weight (est.), dose: 800.0 mg/kg/injection, schedule: Q07DX005 (ip), vehicle: suspension in saline",56 % of control
same,T/C,"endpoint: median tumor weight (est.), dose: 1600.0 mg/kg/injection, schedule: Q07DX005 (ip), vehicle: suspension in saline",59 % of control
same,T/C,"endpoint: median tumor weight change, dose: 62.5 mg/kg/injection, schedule: Q01DX001 (ip), vehicle: saline",55 % of control
same,T/C,"endpoint: median tumor weight change, dose: 125.0 mg/kg/injection, schedule: Q01DX001 (ip), vehicle: saline",78 % of control
same,T/C,"endpoint: median tumor weight change, dose: 250.0 mg/kg/injection, schedule: Q01DX001 (ip), vehicle: saline",90 % of control
same,T/C,"endpoint: median tumor weight change, dose: 500.0 mg/kg/injection, schedule: Q01DX001 (ip), vehicle: saline",72 % of control
same,T/C,"endpoint: median tumor weight change, dose: 1000.0 mg/kg/injection, schedule: Q01DX001 (ip), vehicle: saline",70 % of control
CCN(CC)Cc1cc2[nH]c3c4ccc(Cl)cc4ncc3c2cc1OC,T/C,"endpoint: median tumor weight change, dose: 31.0 mg/kg/injection, schedule: Q01DX001 (ip), vehicle: saline with Tween-80",47 % of control
same,T/C,"endpoint: median tumor weight change, dose: 62.0 mg/kg/injection, schedule: Q01DX001 (ip), vehicle: saline with Tween-80",109 % of control
same,T/C,"endpoint: median tumor weight change, dose: 125.0 mg/kg/injection, schedule: Q01DX001 (ip), vehicle: saline with Tween-80",118 % of control
COC(=O)Nc1cn2cc(C(=O)c3cccs3)ccc2n1,T/C,"endpoint: median tumor weight change, dose: 62.5 mg/kg/injection, schedule: Q01DX001 (ip), vehicle: Klucel (hydroxypropylcellulose) (HPC)",99 % of control
same,T/C,"endpoint: median tumor weight change, dose: 125.0 mg/kg/injection, schedule: Q01DX001 (ip), vehicle: Klucel (hydroxypropylcellulose) (HPC)",71 % of control
same,T/C,[7],69 % of control
CCCCCC1c2cc(O)ccc2OC1N1CCOCC1 (centres undefined),T/C,"endpoint: median tumor weight change, dose: 250.0 mg/kg/injection, schedule: Q01DX001 (ip), vehicle: saline with Tween-80",204 % of control and 73 % of control
CC(=O)O[C@H]1C(=O)[C@@]2(C)[C@H]([C@H](OC(=O)c3ccccc3)[C@]3(O)C[C@H](OC(=O)[C@H](O)[C@@H](NC(=O)c4ccccc4)c4ccccc4)C(C)=C1C3(C)C)[C@]1(OC(C)=O)CO[C@@H]1C[C@@H]2O,T/C,"endpoint: median tumor weight (est.), dose: 15.0 mg/kg/injection, schedule: Q07DX005 (ip), vehicle: Klucel (hydroxypropylcellulose) (HPC)",57 % of control
Cn1cnc([N+](=O)[O-])c1[Se]c1nc(N)nc2nc[nH]c12,T/C,"endpoint: median tumor weight (est.), dose: 6.25 mg/kg/injection, schedule: Q07DX005 (ip), vehicle: water",109 % of control
same,T/C,"endpoint: median tumor weight (est.), dose: 12.5 mg/kg/injection, schedule: Q07DX005 (ip), vehicle: water",104 % of control
same,T/C,"endpoint: median tumor weight (est.), dose: 25.0 mg/kg/injection, schedule: Q07DX005 (ip), vehicle: water",173 % of control
same,T/C,"endpoint: median tumor weight (est.), dose: 50.0 mg/kg/injection, schedule: Q07DX005 (ip), vehicle: water",215 % of control
same,T/C,"endpoint: median tumor weight (est.), dose: 200.0 mg/kg/injection, schedule: Q07DX005 (ip), vehicle: water",107 % of control
C[C@]12CCC(=O)C=C1CC[C@@H]1[C@@H]2[C@@H](O)C[C@@]2(C)[C@H]1CC[C@]2(O)C(=O)CO,T/C,[3],76 % of control
same,T/C,[4],95 % of control
same,T/C,[5],60 % of control
same,T/C,[6],29 % of control
same,T/C,"endpoint: median tumor weight (est.), dose: 800.0 mg/kg/injection, schedule: Q07DX005 (ip), vehicle: Klucel (hydroxypropylcellulose) (HPC)",21 % of control
same,T/C,"endpoint: median tumor weight change, dose: 100.0 mg/kg/injection, schedule: Q01DX001 (ip), vehicle: Klucel (hydroxypropylcellulose) (HPC)",101 % of control
same,T/C,"endpoint: median tumor weight change, dose: 200.0 mg/kg/injection, schedule: Q01DX001 (ip), vehicle: Klucel (hydroxypropylcellulose) (HPC)",99 % of control
same,T/C,"endpoint: median tumor weight change, dose: 400.0 mg/kg/injection, schedule: Q01DX001 (ip), vehicle: Klucel (hydroxypropylcellulose) (HPC)",110 % of control
same,T/C,"endpoint: median tumor weight change, dose: 800.0 mg/kg/injection, schedule: Q01DX001 (ip), vehicle: Klucel (hydroxypropylcellulose) (HPC)",57 % of control
S=c1nc[nH]c2nc[nH]c12,T/C,"endpoint: mean tumor weight (est.), dose: 135.0 mg/kg/injection, schedule: Q07DX005 (ip), vehicle: sodium bicarbonate",42 % of control
same,T/C,"endpoint: mean tumor weight, dose: 15.0 mg/kg/injection, schedule: Q01DX009 (ip), vehicle: saline",16 % of control
same,T/C,"endpoint: mean tumor weight, dose: 30.0 mg/kg/injection, schedule: Q01DX009 (ip), vehicle: saline",5 % of control
same,T/C,"endpoint: mean tumor weight, dose: 35.0 mg/kg/injection, schedule: Q07DX007 (ip), vehicle: saline",98 % of control
same,T/C,"endpoint: mean tumor weight, dose: 60.0 mg/kg/injection, schedule: Q01DX009 (ip), vehicle: saline",14 % of control
same,T/C,"endpoint: mean tumor weight, dose: 67.5 mg/kg/injection, schedule: Q07DX005 (ip), vehicle: saline",57 % of control
same,T/C,"endpoint: mean tumor weight, dose: 67.5 mg/kg/injection, schedule: Q07DX006 (ip), vehicle: sodium bicarbonate",49 % of control
same,T/C,"endpoint: mean tumor weight, dose: 67.5 mg/kg/injection, schedule: Q07DX007 (ip), vehicle: saline",81 % of control
same,T/C,"endpoint: mean tumor weight, dose: 135.0 mg/kg/injection, schedule: Q07DX005 (ip), vehicle: saline",37 % of control
same,T/C,"endpoint: median tumor weight (est.), dose: 4.0 mg/kg/injection, schedule: Q07DX005 (ip), vehicle: saline",73 % of control
same,T/C,"endpoint: median tumor weight (est.), dose: 6.25 mg/kg/injection, schedule: Q07DX005 (ip), vehicle: Klucel (hydroxypropylcellulose) (HPC)",78 % of control
same,T/C,"endpoint: median tumor weight (est.), dose: 8.0 mg/kg/injection, schedule: Q07DX005 (ip), vehicle: saline",78 % of control
same,T/C,"endpoint: median tumor weight (est.), dose: 16.0 mg/kg/injection, schedule: Q07DX005 (ip), vehicle: saline",350 % of control
same,T/C,[2],80 % of control
same,T/C,"endpoint: median tumor weight (est.), dose: 32.0 mg/kg/injection, schedule: Q07DX005 (ip), vehicle: saline",78 % of control
same,T/C,[3],48 % of control
same,T/C,"endpoint: median tumor weight (est.), dose: 64.0 mg/kg/injection, schedule: Q07DX005 (ip), vehicle: saline",101 % of control
same,T/C,[4],17 % of control
same,T/C,"endpoint: median tumor weight (est.), dose: 128.0 mg/kg/injection, schedule: Q07DX005 (ip), vehicle: saline",28 % of control
Cc1ccc(NCCN(C)C)c2c(=O)c3cc(O)ccc3sc12,T/C,[7],-8 % of control and 15 % of control
same,T/C,"endpoint: median tumor weight change, dose: 500.0 mg/kg/injection, schedule: Q01DX001 (ip), vehicle: Klucel (hydroxypropylcellulose) (HPC)",-6 % of control
CCOC(C)C(/C=N/NC(N)=S)=NNC(N)=S (centres undefined),T/C,"endpoint: median tumor weight (est.), dose: 25.0 mg/kg/injection, schedule: Q07DX005 (ip), vehicle: saline with Tween-80",87 % of control and 109 % of control
same,T/C,"endpoint: median tumor weight (est.), dose: 50.0 mg/kg/injection, schedule: Q07DX005 (ip), vehicle: saline with Tween-80",85 % of control and 88 % of control
same,T/C,"endpoint: median tumor weight (est.), dose: 100.0 mg/kg/injection, schedule: Q07DX005 (ip), vehicle: saline with Tween-80",78 % of control and 96 % of control
